According to US7132441B2, “Immunosuppressive effects of administration of a cyclooxygenase-2 inhibitor and a 5-lipoxygenase inhibitor” (G.D. Searle & Co., priority 1996, dated 2006):

Test system: B10.Br mouse tailskin grafted on male C57BL/10 mice
Assay: Skin graft rejection time (transplantation and evaluation of graft rejection)
Type: in vivo
Conditions: i.p. from day of grafting until rejection, Example 2 30 mpk/day q.d., Example 3 10 mpk/day q.d.; for Skin Graft Rejection Time, Ex. #1 Rejection: experiment #1; for Skin Graft Rejection Time, Ex. #3 Rejection: experiment #3
From the text: Transplantation and Evaluation of Graft Resection
The method of skin grafting used has been previously described [D. Steinmuller, Skin Grafting. Surgical Techniques in Immunology, Methods Enzymol. […] Briefly, a tailskin from an 8–12 week old male B10.Br mouse was removed and stored in cold saline. Male C57BL/10 mice were anesthetized, and their backs were shaved. The backs were scrubbed with alcohol, and a 1 cm^2 piece of skin was removed. A similar size piece of skin was cut from the tailskin of the B10.Br mouse and placed in the excised area on the C57BL/10 animal's back. A petroleum jelly coated bandage was placed over the graft and held in place by a single surgical staple. Compounds were prepared as a suspension in 0.5% methylcellulose (Sigma, St. Louis, Mo.), and 0.025% Tween® 20 (Sigma). The compounds were administered by i.p. injection in a volume of 0.1 ml beginning on the day of skin grafting and continuing until transplant rejection. […] Compounds were administered alone or as combinations of a COX-2 and 5-LO inhibitor. Bandages were left in place until 8 days post grafting. At that time they were removed, and the grafts were observed daily or signs of rejection. Rejection was determined by complete blackening or scabbing of the grafted skin.

SMILES	Skin Graft Rejection Time, Ex. #1 Rejection [days]	Skin Graft Rejection Time, Ex. #3 Rejection [days]
COc1ccc(-c2cc(C(F)F)nn2-c2ccc(S(N)(=O)=O)cc2)cc1F [Example 2, 4-[5-(3-Fluoro-4-methoxyphenyl)-3-(difluoromethyl)-1H-pyrazol-1-yl]benzenesulfonamide]	15.7	17.3
CC(C#Cc1ccc(Oc2ccc(F)cc2)o1)N(O)C(N)=O (stereo not shown) [Example 3, N′-[3-[5-(4-Fluorophenoxy)furyl-2-yl]-1-methyl-2-propynyl]-N′-hydroxyurea]	15.0	17.0
